Test results as given in US6337333B1, “Method of treating autoimmune disease with fludarabine-5′-monophosphate” (priority 1992, dated 2002).

Legend:
Format in all cases: cell-based, human
[1] = test system: T and B lymphocytes; test: Mitogen response of PBMC enriched for T or B lymphocytes continuously cultured with drug; conditions: cultures continuously exposed to drug
Procedure: In FIG. 2, peripheral blood mononuclear cells enriched for either T (top) or B (bottom) lymphocytes were continuously cultured with the appropriate concentrations of drug for 3 or 6 days, respectively. The mitogen PHA-P was used at 5 μg/ml and the mitogen PWM was used at 1 μg/ml. The wells were pulsed and harvested as described above.
The adenosine analog 2-chlorodeoxyadenosine (2CDA) has also been reported to have significant cytotoxic and immunosuppressive effects on normal lymphocytes (10,13).

[2] = test system: IgG production; test: Cumulative IgG production in SAC + rIL-2 cultures, EIA; conditions: for accumulation of IgG: 5 and 10 day SAC rIL-2 cultures, preliminary studies; for effect on IgG production: FIG. 7B
From the text: In FIG. 7, peripheral blood mononuclear cells (PBMC) enriched for B lymphocytes (BC92; 35% CD19, 33% CD20, 35% CD3) were continuously cultured for 5 days in either medium alone, Staphylococcus aureus Cowan I (SAC) plus interleukin 2 (IL-2) (50 U/ml), or SAC plus IL-2 in the presence of various concentrations of FLP or 2-chlorodeoxyadenosine (2CDA). After 5 days of culture, the supernatants were harvested and serial dilutions of supernatant assayed for huIgM and huIgG by EIA. The presence of IgM rheumatoid factor (IgM-RF) was determined by EIA using the Vectastain Biotin-Streptavidin amplification system. Results are reported as O.D. 405 nm units. Nonspecific binding of neat supernatant to uncoated wells was <0.05% of that seen with the respective coated wells. The results shown are from 1 representative experiment of 4 separate experiments conducted with 4 different sources of packed leukocytes.
In FIG. 8, peripheral blood mononuclear cells (PBMC) enriched for B lymphocytes (BC92, 35% CD19, 33% CD20, 35% CD3) were continuously cultured for 10 days in either medium alone, Staphylococcus aureus Cowan I (SAC) plus interleukin 2 (IL-2) (50 U/ml), or SAC plus IL-2 in the presence of various concentrations of FLP or 2CDA. At the end of the culture period, the supernatants were harvested and serial dilutions assayed for huIgM, huIgG, and IgM-RF by EIA. The cells were phenotyped by flowcytometry. Results are reported as O.D. 405 nm units. Nonspecific binding of neat supernatants to uncoated wells was <0.5% of that seen with parallel coated wells. The results shown are from 1 experiment representative of 3 separate experiments conducted with 3 different sources of packed leukocytes.
In FIG. 9, peripheral blood mononuclear cells (PBMC) (BC93; 22% CD19, 20% CD20, 78% CD3) were continuously cultured for 5 days in either medium alone, Staphylococcus aureus Cowan I (SAC) plus interleukin 2 (IL-2) (50 U/ml) or 20% T cell conditioned medium (Tcm) in the presence of various concentrations of FLP. At the end of the 5 day culture period, the supernatants were harvested and serial dilutions assayed for huIgM, huIgG, and IgM-RF by EIA. The results are reported as O.D. 405 nm units. Nonspecific binding of neat supernatants to uncoated wells was <0.05% of parallel coated wells. The results shown are from one representative experiment.
Immulon-2 (Dynatek Laboratories, #011-010-3450, Chantilly, Va.) flat-bottom 96 well microtiter plates were coated with 100 μl/well of a 2 μg/ml solution of goat F(ab′)2 anti-HuIgM (μ chain, CALTAG #H15100, So. San Francisco, Calif.) or goat F(ab′)2 anti-HuIgG (Fc sp., CALTAG #H10100) in 0.1 M sodium carbonate buffer, pH 9.6 overnight at 4° C. Uncoated wells were incubated with the carbonate buffer alone. The plates were rinsed and then incubated with 100 μl/well of 0.1% BSA/PBS for 1 hr at RT. The plates were rinsed twice with PBS and then incubated for 2 hrs at RT with the respective serial dilutions of culture supernatant and human IgM or IgG standards (Sigma, St.
Louis, Mo.). All dilutions were made in complete S-10 medium (see above). At the end of the incubation period, the plates were rinsed 3 times with PBS/0.05% Tween-20. 100 μl of a 1/500 dilution of goat F(ab′)2 anti-IgM (m) or anti-IgG (H+L) conjugated with alkaline phosphatase (Fisher Biotech, #OB1210-ALPH and #OB1220-ALPH, Pittsburg, Pa.) was added to each well and incubated for 1 hr at RT. The plates were rinsed 3-5 times with PBS/0.05% Tween-20 and 100 μl/well of p-nitrophenyl phosphate substrate (Bio-Rad, Richmond, Calif.) was added and incubated for 30 min. The wells were read at 405 nm with an InterMed NJ-2000 immunoreader. The concentration of sample IgM or IgG was calculated off of a standard curve using the XFROMY linear regression analysis on RS-1 (VAX-VMS). Nonspecific binding was determined from low-dilution samples incubated in parallel in uncoated wells (<0.005% O.D. 405 nm of coated wells). […]

[3] = test system: CD20, CD20/CD5 and CD3/CD5 lymphocyte subsets; test: Flowcytometric phenotype of lymphocyte subsets in SAC + rIL-2 cultures; conditions: for effect on relative percent of CD20, CD20/CD5 and CD3/CD5 staining cells: 5 day SAC + rIL-2 culture, FIG. 4; for CD20, % Viable (% Total) / CD20/5, % Viable (% Total): 5 day culture, 1.0 μg/ml FLP + SAC/rIL-2 (50 μ/ml); for CD20/CD5 subpopulations: end of 5 and 10 day culture periods, drug dose dependent, data not shown
Procedure: Approximately 5×10^5−1×10^6 PBMC, enriched T, or B lymphocytes were cultured in 1 ml of S-10 in Falcon 10×75 mm capped polypropylene tissue culture tubes (Falcon #2063) for the appropriate times at 37° C. in a humidified 5% CO2/air atmosphere. Recombinant IL-2 (rIL-2) was used at 50 U/ml and SAC was at a final concentration of {fraction (1/60,000)}. The mitogens phytohemagglutinin (PHA-P) (Pharmacia, #27-3707-01, Uppsala, Sweden) and pokeweed mitogen (PWM, Pharmacia, #27-3702-01) were used at 5 μg/ml and 10 μg/ml, respectively.
Cells were washed once in citrate buffered saline (C-BSS) and 10^5-10^6 cells per sample were aliquoted for staining. For direct immunofluorescence, […] of either FITC- or PC-conjugated CD-specific mouse monoclonal antibody (Becton Dickinson, San Jose, Calif.) were added to cells in […] of C-BSS and incubated at RT for 30 min. The samples were then washed once in 2 ml C-BSS, resuspended in 0.5 ml C-BSS and acquired on a B/D FACScan Flowcytometer using either Simulset or Lysis II software. During analysis of data files, lymphocytes were discriminated from monocytes and dead cells on the basis of their forward light scatter (FCS) properties and high positivity with anti-CD45 and anti-CD14 (leucogate).
In FIG. 4, at the end of the culture period, the cells were washed, fixed with 1% formalin/PBS, and stained with mouse monoclonals anti-CD20 (PE), anti-CD3 (PE), and anti-CD5 (FITC). The stained samples were analyzed on a FACScan flowcytometer using LYSYS II software. Viable cells were gated and results are expressed as percent of total viable events acquired.
Experiments were conducted that sampled supernatants and cells at 5 and 10 days culture with various amounts of drug.

Structure (SMILES)	level of drug that suppresses the mitogen response [1] [µg/mL]	effect on IgG accumulation ([2]; 0.1 μg/ml, 10 days, FIG. 8B)	reduction of IgG accumulation ([2]; 1 μg, 10 days, FIG. 8B) [%]	reduction of IgG accumulation ([2]; 5 μg, 10 days, FIG. 8B) [%]	reduction of IgG accumulation ([2]; 0.1 and 0.5 μg/ml, PBMC, 5 days, cultures supplemented with T cell conditioned medium, FIG. 9B)	accumulation of IgG [2]	effect on IgG production ([2]; one hundred nanograms per ml, 5 days)	effect on relative percent of CD20, CD20/CD5 and CD3/CD5 staining cells ([3]; 0.1 μg/ml)	effect on relative percent of CD20, CD20/CD5 and CD3/CD5 staining cells ([3]; 0.5 μg to 5.0 μg/ml)	CD20, % Viable (% Total) ([3]; IL-6 +) [%]	CD20/5, % Viable (% Total) ([3]; IL-6 +) [%]	CD20, % Viable (% Total) ([3]; IL-6 −) [%]	CD20/5, % Viable (% Total) ([3]; IL-6 −) [%]	CD20/CD5 subpopulations [3]	effect on IgG production ([2]; one microgram per ml, 5 days)	effect on IgG accumulation ([2]; one microgram per ml, 10 days)
Nc1nc(F)nc2c1ncn2[C@@H]1O[C@H](COP(=O)(O)O)[C@@H](O)[C@@H]1O [FLP, fludarabine-5′-monophosphate]	0.5	minimal effect	80	98	not seen	dose-related decrease	minimal effect	minimal effect	dose-dependent decrease	60	1.9	64	1.8	decreased	–	–
Nc1nc(Cl)nc2c1ncn2[C@H]1C[C@H](O)[C@@H](CO)O1 [2CDA, 2-chlorodeoxyadenosine]	0.5	–	–	–	–	dose-related decrease	–	–	–	–	–	–	–	decreased	block	block the accumulation
